Data taken from paper PMC9817970 (Cancers, 2022).

Assays:
[1] = system: c-KIT auto-phosphorylation in c-KIT D816V Ba/F3 cells; assay: Western blot of c-KIT signaling; type: cell-based; conditions: 10 μM
Experimental: Cells were harvested and lysed using RIPA buffer containing 50 mM HEPES (pH 7.4), 1% Triton X-100, 2 mM EDTA, 150 mM NaCl, 2.5 mM NaF, 5 mM Na3VO4, and protease inhibitor cocktail tablet (Roche, # 11–878-580–001). Proteins were separated and transferred to an NC membrane. The membranes were blocked using 5% skim milk in TBS-T buffer. The p-c-KIT (Tyr703, # 3073), p-AKT (Ser473, # 9271), p-ERK (Thr202/Tyr204, # 8544), ERK (# 4695), p-PLCγ (Tyr783, # 14008), p-STAT3 (Tyr705, # 4074), and PARP (# 9542) antibodies were obtained from Cell Signaling Technologies. The β-actin (# sc-47778) and STAT3 (# sc-482) antibodies were obtained from Santa Cruz Biotechnology. AKT (A18120) antibody was purchased from ABclonal. Each primary antibody was incubated overnight at 4 °C. The secondary antibody (GenDEPOT) was incubated for 1 h at room temperature. Proteins were detected using ECL substrate.

[2] = target: T1, TRKB (Homo sapiens, UniProt Q16620); assay: Kinase panel profiling; type: biochemical; conditions: 10 μM ATP
T1 construct: purchased Reaction Biology Corp
Experimental: (§1) Kinase panel profiling was conducted by Reaction Biology Corp. (San Diego, CA, USA). A single dose (1.0 μM) of 6r was tested against 371 recombinant human kinases in the presence of 10 μM ATP.

[3] = target: T2, MST2/STK3 (Homo sapiens, UniProt Q13188); assay: Kinase panel profiling; type: biochemical; conditions: 10 μM ATP
T2 construct: purchased Reaction Biology Corp
Experimental: as §1

[4] = target: T3, GRK4 (Homo sapiens, UniProt P32298); assay: Kinase panel profiling; type: biochemical; conditions: 10 μM ATP
T3 construct: purchased Reaction Biology Corp
Experimental: as §1

[5] = target: T4, CDK2/Cyclin A1 (Homo sapiens, UniProt P24941); assay: Kinase panel profiling; type: biochemical; conditions: 10 μM ATP
T4 construct: purchased Reaction Biology Corp
Experimental: as §1

[6] = target: T5, SBK1 (Homo sapiens, UniProt Q52WX2); assay: Kinase panel profiling; type: biochemical; conditions: 10 μM ATP
T5 construct: purchased Reaction Biology Corp
Experimental: as §1

[7] = target: T6, ALK5/TGFBR1 (Homo sapiens, UniProt P36897); assay: Kinase panel profiling; type: biochemical; conditions: 10 μM ATP
T6 construct: purchased Reaction Biology Corp
Experimental: as §1

[8] = target: T7, c-Src (Homo sapiens, UniProt P12931); assay: Kinase panel profiling; type: biochemical; conditions: 10 μM ATP
T7 construct: purchased Reaction Biology Corp
Experimental: as §1

[9] = target: T8, BRSK1 (Homo sapiens, UniProt Q8TDC3); assay: Kinase panel profiling; type: biochemical; conditions: 10 μM ATP
T8 construct: purchased Reaction Biology Corp
Experimental: as §1

[10] = target: T9, MRCKb/CDC42BPB (Homo sapiens, UniProt Q9Y5S2); assay: Kinase panel profiling; type: biochemical; conditions: 10 μM ATP
T9 construct: purchased Reaction Biology Corp
Experimental: as §1

[11] = target: T10, PKCb1 (Homo sapiens, UniProt P05771); assay: Kinase panel profiling; type: biochemical; conditions: 10 μM ATP
T10 construct: purchased Reaction Biology Corp
Experimental: as §1

[12] = target: T11, CAMKK1 (Homo sapiens, UniProt Q8N5S9); assay: Kinase panel profiling; type: biochemical; conditions: 10 μM ATP
T11 construct: purchased Reaction Biology Corp
Experimental: as §1

[13] = target: T12, PLK3 (Homo sapiens, UniProt Q9H4B4); assay: Kinase panel profiling; type: biochemical; conditions: 10 μM ATP
T12 construct: purchased Reaction Biology Corp
Experimental: as §1

[14] = target: T13, MEKK3 (Homo sapiens, UniProt Q99759); assay: Kinase panel profiling; type: biochemical; conditions: 10 μM ATP
T13 construct: purchased Reaction Biology Corp
Experimental: as §1

[15] = target: T14, EPHB1 (Homo sapiens, UniProt P54762); assay: Kinase panel profiling; type: biochemical; conditions: 10 μM ATP
T14 construct: purchased Reaction Biology Corp
Experimental: as §1

[16] = target: T15, MLK4 (Homo sapiens, UniProt Q5TCX8); assay: Kinase panel profiling; type: biochemical; conditions: 10 μM ATP
T15 construct: purchased Reaction Biology Corp
Experimental: as §1

[17] = target: T16, ALK6/BMPR1B (Homo sapiens, UniProt O00238); assay: Kinase panel profiling; type: biochemical; conditions: 10 μM ATP
T16 construct: purchased Reaction Biology Corp
Experimental: as §1

[18] = target: T17, AKT1 (Homo sapiens, UniProt P31749); assay: Kinase panel profiling; type: biochemical; conditions: 10 μM ATP
T17 construct: purchased Reaction Biology Corp
Experimental: as §1

[19] = target: T18, CK2a2 (Homo sapiens, UniProt P19784); assay: Kinase panel profiling; type: biochemical; conditions: 10 μM ATP
T18 construct: purchased Reaction Biology Corp
Experimental: as §1

[20] = target: T19, SIK1 (Homo sapiens, UniProt P57059); assay: Kinase panel profiling; type: biochemical; conditions: 10 μM ATP
T19 construct: purchased Reaction Biology Corp
Experimental: as §1

[21] = target: T20, DYRK2 (Homo sapiens, UniProt Q92630); assay: Kinase panel profiling; type: biochemical; conditions: 10 μM ATP
T20 construct: purchased Reaction Biology Corp
Experimental: as §1

[22] = target: T21, PKCeta (Homo sapiens, UniProt P24723); assay: Kinase panel profiling; type: biochemical; conditions: 10 μM ATP
T21 construct: purchased Reaction Biology Corp
Experimental: as §1

[23] = target: T22, MRCKa/CDC42BPA (Homo sapiens, UniProt Q5VT25); assay: Kinase panel profiling; type: biochemical; conditions: 10 μM ATP
T22 construct: purchased Reaction Biology Corp
Experimental: as §1

[24] = target: T23, TGFBR2 (Homo sapiens, UniProt P37173); assay: Kinase panel profiling; type: biochemical; conditions: 10 μM ATP
T23 construct: purchased Reaction Biology Corp
Experimental: as §1

[25] = target: T24, STK25/YSK1 (Homo sapiens, UniProt O00506); assay: Kinase panel profiling; type: biochemical; conditions: 10 μM ATP
T24 construct: purchased Reaction Biology Corp
Experimental: as §1

[26] = target: T25, JNK1 (Homo sapiens, UniProt P45983); assay: Kinase panel profiling; type: biochemical; conditions: 10 μM ATP
T25 construct: purchased Reaction Biology Corp
Experimental: as §1

[27] = target: T26, ULK2 (Homo sapiens, UniProt Q8IYT8); assay: Kinase panel profiling; type: biochemical; conditions: 10 μM ATP
T26 construct: purchased Reaction Biology Corp
Experimental: as §1

[28] = target: T27, ARAF (Homo sapiens, UniProt P10398); assay: Kinase panel profiling; type: biochemical; conditions: 10 μM ATP
T27 construct: purchased Reaction Biology Corp
Experimental: as §1

[29] = target: T28, SIK2 (Homo sapiens, UniProt Q9H0K1); assay: Kinase panel profiling; type: biochemical; conditions: 10 μM ATP
T28 construct: purchased Reaction Biology Corp
Experimental: as §1

[30] = target: T29, NEK2 (Homo sapiens, UniProt P51955); assay: Kinase panel profiling; type: biochemical; conditions: 10 μM ATP
T29 construct: purchased Reaction Biology Corp
Experimental: as §1

[31] = target: T30, ROCK1 (Homo sapiens, UniProt Q13464); assay: Kinase panel profiling; type: biochemical; conditions: 10 μM ATP
T30 construct: purchased Reaction Biology Corp
Experimental: as §1

[32] = target: T31, RSK3 (Homo sapiens, UniProt Q15349); assay: Kinase panel profiling; type: biochemical; conditions: 10 μM ATP
T31 construct: purchased Reaction Biology Corp
Experimental: as §1

[33] = target: T32, CHK1 (Homo sapiens, UniProt O14757); assay: Kinase panel profiling; type: biochemical; conditions: 10 μM ATP
T32 construct: purchased Reaction Biology Corp
Experimental: as §1

[34] = target: T33, MYLK3 (Homo sapiens, UniProt Q32MK0); assay: Kinase panel profiling; type: biochemical; conditions: 10 μM ATP
T33 construct: purchased Reaction Biology Corp
Experimental: as §1

[35] = target: T34, MARK4 (Homo sapiens, UniProt Q96L34); assay: Kinase panel profiling; type: biochemical; conditions: 10 μM ATP
T34 construct: purchased Reaction Biology Corp
Experimental: as §1

[36] = target: T35, GRK3 (Homo sapiens, UniProt P35626); assay: Kinase panel profiling; type: biochemical; conditions: 10 μM ATP
T35 construct: purchased Reaction Biology Corp
Experimental: as §1

T23 sequence (P37173 23-567): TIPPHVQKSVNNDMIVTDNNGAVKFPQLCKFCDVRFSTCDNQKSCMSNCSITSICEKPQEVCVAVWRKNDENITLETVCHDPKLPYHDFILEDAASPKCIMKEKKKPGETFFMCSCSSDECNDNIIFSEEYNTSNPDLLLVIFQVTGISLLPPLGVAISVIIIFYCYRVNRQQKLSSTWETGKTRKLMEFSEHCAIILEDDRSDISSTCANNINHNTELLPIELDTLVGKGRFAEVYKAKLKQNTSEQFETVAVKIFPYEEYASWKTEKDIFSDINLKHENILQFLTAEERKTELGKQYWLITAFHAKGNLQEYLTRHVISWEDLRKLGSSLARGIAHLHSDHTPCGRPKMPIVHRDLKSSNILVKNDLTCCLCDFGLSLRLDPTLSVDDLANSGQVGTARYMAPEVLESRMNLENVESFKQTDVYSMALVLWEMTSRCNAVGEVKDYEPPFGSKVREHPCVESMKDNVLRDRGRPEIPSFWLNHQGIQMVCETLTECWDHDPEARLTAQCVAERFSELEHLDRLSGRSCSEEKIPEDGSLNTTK
T7 sequence (P12931 whole entry): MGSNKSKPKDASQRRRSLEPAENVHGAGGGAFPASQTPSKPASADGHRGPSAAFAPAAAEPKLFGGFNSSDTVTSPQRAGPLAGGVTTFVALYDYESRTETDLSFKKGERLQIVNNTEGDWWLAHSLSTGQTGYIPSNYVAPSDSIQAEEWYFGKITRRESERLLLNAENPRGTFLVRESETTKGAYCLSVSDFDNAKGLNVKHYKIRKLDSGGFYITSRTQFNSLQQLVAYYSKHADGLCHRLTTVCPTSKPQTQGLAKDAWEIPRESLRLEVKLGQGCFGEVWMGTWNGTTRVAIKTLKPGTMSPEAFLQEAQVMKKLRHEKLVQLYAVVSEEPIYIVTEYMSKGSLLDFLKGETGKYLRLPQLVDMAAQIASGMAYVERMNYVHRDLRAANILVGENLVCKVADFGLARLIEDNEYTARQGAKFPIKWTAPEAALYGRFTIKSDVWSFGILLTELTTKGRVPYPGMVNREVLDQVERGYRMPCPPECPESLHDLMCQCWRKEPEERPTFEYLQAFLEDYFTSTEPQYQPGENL
T20 sequence (Q92630 whole entry): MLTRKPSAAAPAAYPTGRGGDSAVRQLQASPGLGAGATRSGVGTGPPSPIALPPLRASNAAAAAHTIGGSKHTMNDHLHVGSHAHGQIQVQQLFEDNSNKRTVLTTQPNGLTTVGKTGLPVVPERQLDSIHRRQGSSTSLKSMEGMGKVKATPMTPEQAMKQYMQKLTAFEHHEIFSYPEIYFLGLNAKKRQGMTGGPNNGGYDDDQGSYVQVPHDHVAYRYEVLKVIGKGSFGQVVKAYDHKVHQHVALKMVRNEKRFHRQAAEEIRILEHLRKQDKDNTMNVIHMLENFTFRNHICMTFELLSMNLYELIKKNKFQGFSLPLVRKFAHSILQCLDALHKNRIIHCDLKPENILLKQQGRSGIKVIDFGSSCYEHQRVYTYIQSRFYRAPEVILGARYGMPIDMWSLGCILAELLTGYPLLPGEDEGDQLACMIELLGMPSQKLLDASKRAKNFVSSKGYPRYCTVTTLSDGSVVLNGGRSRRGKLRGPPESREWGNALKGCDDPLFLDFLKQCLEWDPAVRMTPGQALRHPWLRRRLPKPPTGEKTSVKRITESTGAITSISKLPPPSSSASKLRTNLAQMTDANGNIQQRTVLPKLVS
T14 sequence (P54762 18-984): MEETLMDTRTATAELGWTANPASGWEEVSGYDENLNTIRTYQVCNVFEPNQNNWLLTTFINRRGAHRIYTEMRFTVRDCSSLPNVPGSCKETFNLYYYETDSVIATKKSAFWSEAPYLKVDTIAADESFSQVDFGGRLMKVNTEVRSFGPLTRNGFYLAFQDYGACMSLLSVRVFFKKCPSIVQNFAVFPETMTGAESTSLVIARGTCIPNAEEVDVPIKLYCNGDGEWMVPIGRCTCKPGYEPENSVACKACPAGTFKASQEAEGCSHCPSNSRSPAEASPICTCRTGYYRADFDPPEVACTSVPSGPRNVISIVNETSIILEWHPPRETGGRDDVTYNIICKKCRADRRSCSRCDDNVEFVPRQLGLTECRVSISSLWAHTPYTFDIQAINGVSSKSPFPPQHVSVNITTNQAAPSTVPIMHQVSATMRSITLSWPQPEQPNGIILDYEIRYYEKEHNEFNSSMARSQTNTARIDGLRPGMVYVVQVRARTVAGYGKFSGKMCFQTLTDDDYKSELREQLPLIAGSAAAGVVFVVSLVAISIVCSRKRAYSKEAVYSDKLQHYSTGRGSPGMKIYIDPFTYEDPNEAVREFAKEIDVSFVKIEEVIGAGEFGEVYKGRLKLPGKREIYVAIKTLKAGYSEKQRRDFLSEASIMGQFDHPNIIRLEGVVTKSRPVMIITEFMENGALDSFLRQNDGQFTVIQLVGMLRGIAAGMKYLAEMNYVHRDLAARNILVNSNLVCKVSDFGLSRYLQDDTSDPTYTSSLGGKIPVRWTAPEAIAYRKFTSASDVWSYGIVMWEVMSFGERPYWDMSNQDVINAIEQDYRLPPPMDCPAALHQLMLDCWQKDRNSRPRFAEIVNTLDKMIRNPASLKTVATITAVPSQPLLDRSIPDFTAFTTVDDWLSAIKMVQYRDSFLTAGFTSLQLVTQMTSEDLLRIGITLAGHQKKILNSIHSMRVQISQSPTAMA
T3 sequence (P32298 whole entry): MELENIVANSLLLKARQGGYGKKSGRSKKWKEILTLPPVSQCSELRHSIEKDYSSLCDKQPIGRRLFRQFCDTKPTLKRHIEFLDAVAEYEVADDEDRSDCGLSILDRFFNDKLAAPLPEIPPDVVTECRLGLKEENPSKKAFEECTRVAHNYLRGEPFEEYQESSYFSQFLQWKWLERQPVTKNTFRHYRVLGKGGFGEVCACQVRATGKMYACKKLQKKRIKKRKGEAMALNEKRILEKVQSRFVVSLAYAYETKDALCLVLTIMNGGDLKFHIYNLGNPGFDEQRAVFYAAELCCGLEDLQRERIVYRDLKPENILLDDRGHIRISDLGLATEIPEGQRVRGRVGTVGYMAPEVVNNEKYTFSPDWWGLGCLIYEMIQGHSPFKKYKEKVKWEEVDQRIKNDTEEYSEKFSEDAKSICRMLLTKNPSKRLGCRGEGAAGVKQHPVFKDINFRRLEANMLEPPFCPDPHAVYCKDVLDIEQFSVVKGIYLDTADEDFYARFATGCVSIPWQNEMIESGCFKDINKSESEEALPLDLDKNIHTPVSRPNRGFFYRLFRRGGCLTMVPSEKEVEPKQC
T21 sequence (P24723 whole entry): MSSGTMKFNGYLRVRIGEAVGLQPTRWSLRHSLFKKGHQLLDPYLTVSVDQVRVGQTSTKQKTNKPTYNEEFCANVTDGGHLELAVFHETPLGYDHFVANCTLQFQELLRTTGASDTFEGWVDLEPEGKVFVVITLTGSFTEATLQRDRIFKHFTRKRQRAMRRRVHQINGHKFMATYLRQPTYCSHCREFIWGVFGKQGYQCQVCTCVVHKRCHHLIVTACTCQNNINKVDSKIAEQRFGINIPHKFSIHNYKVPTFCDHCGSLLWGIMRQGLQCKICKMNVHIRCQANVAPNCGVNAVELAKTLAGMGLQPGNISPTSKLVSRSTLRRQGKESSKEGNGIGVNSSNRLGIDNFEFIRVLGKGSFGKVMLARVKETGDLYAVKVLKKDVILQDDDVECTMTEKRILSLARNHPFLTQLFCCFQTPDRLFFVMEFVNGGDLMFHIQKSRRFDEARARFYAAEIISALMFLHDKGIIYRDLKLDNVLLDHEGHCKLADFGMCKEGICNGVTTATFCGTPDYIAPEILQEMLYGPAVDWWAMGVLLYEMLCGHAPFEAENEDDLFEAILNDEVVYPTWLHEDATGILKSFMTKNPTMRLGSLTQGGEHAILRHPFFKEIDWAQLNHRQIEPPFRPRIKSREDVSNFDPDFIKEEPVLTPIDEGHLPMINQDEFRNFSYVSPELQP
T11 sequence (Q8N5S9 whole entry): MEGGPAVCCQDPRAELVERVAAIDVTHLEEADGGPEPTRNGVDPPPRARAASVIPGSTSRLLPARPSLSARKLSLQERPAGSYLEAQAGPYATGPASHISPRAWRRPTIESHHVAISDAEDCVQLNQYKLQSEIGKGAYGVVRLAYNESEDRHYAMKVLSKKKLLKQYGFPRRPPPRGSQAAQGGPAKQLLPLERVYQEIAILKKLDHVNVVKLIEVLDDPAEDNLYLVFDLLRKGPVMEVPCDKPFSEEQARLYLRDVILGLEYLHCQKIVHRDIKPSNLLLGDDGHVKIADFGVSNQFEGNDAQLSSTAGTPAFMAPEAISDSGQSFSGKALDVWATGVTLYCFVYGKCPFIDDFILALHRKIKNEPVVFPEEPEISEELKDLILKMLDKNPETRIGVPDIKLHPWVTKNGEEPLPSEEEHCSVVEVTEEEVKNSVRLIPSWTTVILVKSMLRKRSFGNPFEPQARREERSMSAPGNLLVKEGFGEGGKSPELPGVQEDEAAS
T5 sequence (Q52WX2 whole entry): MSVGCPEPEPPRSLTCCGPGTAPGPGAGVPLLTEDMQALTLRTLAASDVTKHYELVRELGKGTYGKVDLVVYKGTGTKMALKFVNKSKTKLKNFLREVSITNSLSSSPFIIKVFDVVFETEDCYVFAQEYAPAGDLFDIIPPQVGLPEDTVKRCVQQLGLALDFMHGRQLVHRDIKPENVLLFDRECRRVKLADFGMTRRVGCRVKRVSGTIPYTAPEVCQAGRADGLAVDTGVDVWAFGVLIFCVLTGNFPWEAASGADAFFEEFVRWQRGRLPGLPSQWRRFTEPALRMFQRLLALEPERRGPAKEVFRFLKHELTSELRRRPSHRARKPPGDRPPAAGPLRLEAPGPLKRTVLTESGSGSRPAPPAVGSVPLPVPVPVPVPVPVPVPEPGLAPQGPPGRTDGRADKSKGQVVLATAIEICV

SMILES: Cc1ccc(NC(=O)c2ccc(CN3CCN(C)CC3)c(C(F)(F)F)c2)cc1-c1cnc2sc(N)nc2c1 [6r]
- c-KIT auto-phosphorylation [1]: completely inhibited
- inhibition at 1 µM [2]: 10.6%
- inhibition at 1 µM [3]: 0%
- inhibition at 1 µM [4]: 0%
- inhibition at 1 µM [5]: 7.6%
- inhibition at 1 µM [6]: 6.7%
- inhibition at 1 µM [7]: 0%
- inhibition at 1 µM [8]: 68.7%
- inhibition at 1 µM [9]: 0%
- inhibition at 1 µM [10]: 2.4%
- inhibition at 1 µM [11]: 10.5%
- inhibition at 1 µM [12]: 7.2%
- inhibition at 1 µM [13]: 4.8%
- inhibition at 1 µM [14]: 4.9%
- inhibition at 1 µM [15]: 65.7%
- inhibition at 1 µM [16]: 6.5%
- inhibition at 1 µM [17]: 15%
- inhibition at 1 µM [18]: 0%
- inhibition at 1 µM [19]: 1%
- inhibition at 1 µM [20]: 1.1%
- inhibition at 1 µM [21]: 0.6%
- inhibition at 1 µM [22]: 3.1%
- inhibition at 1 µM [23]: 0%
- inhibition at 1 µM [24]: 0%
- inhibition at 1 µM [25]: 9.3%
- inhibition at 1 µM [26]: 14%
- inhibition at 1 µM [27]: 0%
- inhibition at 1 µM [28]: 98.3%
- inhibition at 1 µM [29]: 5.6%
- inhibition at 1 µM [30]: 0%
- inhibition at 1 µM [31]: 0.2%
- inhibition at 1 µM [32]: 5.4%
- inhibition at 1 µM [33]: 9.3%
- inhibition at 1 µM [34]: 0%
- inhibition at 1 µM [35]: 2%
- inhibition at 1 µM [36]: 0%
